Data taken from patent publication US20250361230A1, “LATS Inhibitors and Uses Thereof” (The USA, as Represented by the Secretary, Dept. of Heath …, priority 2022, published 2025).
Where two headings read alike, the source gives them in different places.

What was measured:
[1] = target: AKT (Homo sapiens, UniProt P31749); assay: RBC HotSpot kinase assay (33P-ATP, P81 filter-binding), AKT; format: biochemical; conditions: read-out: AKT IC50
In short: (§1)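 Compounds were run as single 10-point titrations to give IC50 values in nM. Each kinase was mixed with substrate and cofactors in 20 mM Hepes pH 7.5 reaction buffer with 1% DMSO, then exposed to compound for 20 min. 33P-ATP was added for a 2 h room-temperature reaction, with activity measured by P81 filter binding.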

[2] = target: T1, LATS1 (Homo sapiens, UniProt O95835); assay: RBC HotSpot kinase assay (33P-ATP, P81 filter-binding), LATS1; format: biochemical; conditions: read-out: LATS1 IC50
T1 sequence (O95835 1-1130): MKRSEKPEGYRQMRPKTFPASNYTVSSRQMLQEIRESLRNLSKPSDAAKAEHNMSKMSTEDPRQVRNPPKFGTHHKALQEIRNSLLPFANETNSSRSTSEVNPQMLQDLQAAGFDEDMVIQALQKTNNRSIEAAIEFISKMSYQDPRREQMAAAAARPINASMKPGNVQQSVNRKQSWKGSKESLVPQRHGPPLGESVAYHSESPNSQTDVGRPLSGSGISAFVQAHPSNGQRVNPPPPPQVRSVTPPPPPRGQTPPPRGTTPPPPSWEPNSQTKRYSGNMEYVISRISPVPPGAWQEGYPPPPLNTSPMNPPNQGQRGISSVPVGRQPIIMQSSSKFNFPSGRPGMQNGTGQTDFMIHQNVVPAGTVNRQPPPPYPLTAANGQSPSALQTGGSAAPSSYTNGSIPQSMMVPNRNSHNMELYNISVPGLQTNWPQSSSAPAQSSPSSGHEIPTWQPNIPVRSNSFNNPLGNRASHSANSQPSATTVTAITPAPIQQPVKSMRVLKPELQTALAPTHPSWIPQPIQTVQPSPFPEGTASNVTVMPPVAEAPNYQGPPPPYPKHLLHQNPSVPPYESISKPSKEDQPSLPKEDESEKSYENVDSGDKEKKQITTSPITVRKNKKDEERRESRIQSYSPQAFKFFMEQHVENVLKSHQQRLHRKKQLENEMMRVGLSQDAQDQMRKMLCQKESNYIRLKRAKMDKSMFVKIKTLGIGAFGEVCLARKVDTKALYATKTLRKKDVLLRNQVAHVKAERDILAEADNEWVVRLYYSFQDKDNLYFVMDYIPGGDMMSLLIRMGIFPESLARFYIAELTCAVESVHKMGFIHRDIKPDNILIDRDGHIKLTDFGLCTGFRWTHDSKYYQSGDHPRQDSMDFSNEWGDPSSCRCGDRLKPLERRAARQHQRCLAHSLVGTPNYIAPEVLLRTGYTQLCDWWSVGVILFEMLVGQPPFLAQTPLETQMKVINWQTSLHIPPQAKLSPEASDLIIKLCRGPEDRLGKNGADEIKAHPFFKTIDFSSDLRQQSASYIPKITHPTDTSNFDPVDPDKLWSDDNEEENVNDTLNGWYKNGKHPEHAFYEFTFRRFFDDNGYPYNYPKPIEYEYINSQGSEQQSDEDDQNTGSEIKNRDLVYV
In short: as §1

[3] = Table 28, biochemical kinase assay
[4] = Table 32, biochemical kinase assay

Sequence of AKT (P31749 whole entry): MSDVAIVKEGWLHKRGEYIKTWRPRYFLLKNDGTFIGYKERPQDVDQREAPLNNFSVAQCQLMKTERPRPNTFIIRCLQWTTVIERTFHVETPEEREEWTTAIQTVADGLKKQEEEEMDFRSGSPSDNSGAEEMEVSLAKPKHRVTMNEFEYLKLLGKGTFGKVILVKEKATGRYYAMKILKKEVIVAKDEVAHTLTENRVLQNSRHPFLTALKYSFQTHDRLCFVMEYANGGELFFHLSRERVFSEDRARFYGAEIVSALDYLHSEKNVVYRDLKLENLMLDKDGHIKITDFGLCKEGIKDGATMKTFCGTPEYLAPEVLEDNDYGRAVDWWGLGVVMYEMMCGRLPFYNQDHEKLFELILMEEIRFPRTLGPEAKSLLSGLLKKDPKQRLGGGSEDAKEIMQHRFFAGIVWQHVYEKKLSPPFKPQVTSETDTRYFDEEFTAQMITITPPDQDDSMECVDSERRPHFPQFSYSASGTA

C[C@@H]1CN(C2COC2)C[C@H](C)[C@@]1(O)c1c(F)cc(-c2ccnc3[nH]cc(F)c23)cc1F [Compound 45, (3S,4s,5R)-4-(2,6-difluoro-4-(3-fluoro-1H-pyrrolo[2,3-b]pyridin-4-yl)phenyl)-3, S-dimethyl-1-(oxetan-3-yl)piperidin-4-ol]
IC50 [1, 3]: 1.17 µM | IC50 [2, 3]: 0.0034 µM

C[C@@H]1CNC[C@H](C)[C@@]1(O)c1ccc(-c2ccnc3[nH]cc(F)c23)cc1OC(F)(F)F [Compound 14, (3S,4s,5R)-4-(4-(3-fluoro-1H-pyrrolo[2,3-b]pyridin-4-yl)-2-(trifluoromethoxy)phenyl)-3,5-dimethylpiperidin-4-ol]
IC50 [1, 3]: 0.112 µM | IC50 [2, 3]: 0.0054 µM

C[C@@H]1CN(CC(N)=O)C[C@H](C)[C@@]1(O)c1c(F)cc(-c2ccnc3[nH]cc(F)c23)cc1F [Compound 88, 2-((3R,4s,5S)-4-(2,6-difluoro-4-(3-fluoro-1H-pyrrolo[2,3-b]pyridin-4-yl)phenyl)-4-hydroxy-3,5-dimethylpiperidin-1-yl)acetamide]
IC50 [1, 3]: 0.323 µM | IC50 [2, 3]: 0.0025 µM

Cc1cc(-c2ccnc3[nH]cc(F)c23)ccc1[C@@]1(O)[C@H](C)CNC[C@@H]1C [Compound 9, (3S,4s,5R)-4-(4-(3-fluoro-1H-pyrrolo[2,3-b]pyridin-4-yl)-2-methylphenyl)-3,5-dimethylpiperidin-4-ol]
IC50 [1, 3]: 0.0892 µM | IC50 [2, 3]: 0.0094 µM

c1cc(-c2ccc(C3CCCCN3)cc2)c2cc[nH]c2n1 (stereo not shown) [Compound 271, 4-(4-(piperidin-2-yl)phenyl)-1H-pyrrolo[2,3-b]pyridine]
IC50 [1, 3]: 0.428 µM | IC50 [2, 3]: 0.02 µM

Cc1cc(-c2ccnc3[nH]cc(F)c23)cc(F)c1[C@@]1(O)[C@H](C)CN(C2CCS(=O)(=O)CC2)C[C@@H]1C [Compound 57, 4-((3R,4s,5S)-4-(2-fluoro-4-(3-fluoro-1H-pyrrolo[2,3-b]pyridin-4-yl)-6-methylphenyl)-4-hydroxy-3,5-dimethylpiperidin-1-yl)tetrahydro-2H-thiopyran 1,1-dioxide]
IC50 [1, 3]: 0.374 µM | IC50 [2, 3]: 0.0044 µM

Cc1cc(-c2ccnc3[nH]cc(F)c23)ccc1[C@@]1(O)[C@H](C)CN(C2CCC2)C[C@@H]1C [Compound 54, (3R,4s,5S)-1-cyclobutyl-4-(4-(3-fluoro-1H-pyrrolo[2,3-b]pyridin-4-yl)-2-methylphenyl)-3,5-dimethylpiperidin-4-ol]
IC50 [1, 3]: 0.051 µM | IC50 [2, 3]: 0.0025 µM

Cc1cc(-c2ccnc3[nH]cc(C#N)c23)cc(F)c1[C@@]1(O)[C@H](C)CN(C(=O)C(N)C(F)(F)F)C[C@@H]1C (stereo partly drawn) [Compound 2017, 4-(4-((3S,4s,5R)-1-(2-amino-3,3,3-trifluoropropanoyl)-4-hydroxy-3,5-dimethylpiperidin-4-yl)-3-fluoro-5-methylphenyl)-1H-pyrrolo[2,3-b]pyridine-3-carbonitrile]
IC50 ([1]; biochemical kinase inhibition): 2.05 µM | IC50 ([2]; biochemical kinase inhibition): 0.0082 µM

C[C@@H]1CN(C)C[C@H](C)[C@@]1(O)c1ccc(-c2ccnc3[nH]cc(F)c23)nc1 [Compound 41, (3R,4s,5S)-4-(6-(3-fluoro-1H-pyrrolo[2,3-b]pyridin-4-yl)pyridin-3-yl)-1,3,5-trimethylpiperidin-4-ol]
IC50 [1, 3]: 4.14 µM | IC50 [2, 3]: 0.061 µM

Fc1c[nH]c2nccc(-c3ccc(C4CCNCC4)cc3)c12 [Compound 169, 3-fluoro-4-(4-(piperidin-4-yl)phenyl)-1H-pyrrolo[2,3-b]pyridine]
IC50 [1, 3]: 1.18 µM | IC50 [2, 3]: 0.015 µM

Cc1cc(-c2ccnc3[nH]ccc23)ccc1C1CCNCC1 [Compound 177, 4-(3-methyl-4-(piperidin-4-yl)phenyl)-1H-pyrrolo[2,3-b]pyridine]
IC50 [1, 3]: 0.684 µM | IC50 [2, 3]: 0.011 µM

Cc1cc(-c2ccnc3[nH]cc(C#N)c23)cc(F)c1[C@@]1(O)[C@H](C)CN(C(=O)[C@H](C)N)C[C@@H]1C [Compound 2011, 4-(4-((3S,4R,5R)-1-(L-alanyl)-4-hydroxy-3,5-dimethylpiperidin-4-yl)-3-fluoro-5-methylphenyl)-1H-pyrrolo[2,3-b]pyridine-3-carbonitrile]
IC50 ([1]; biochemical kinase inhibition): 1.03 µM | IC50 ([2]; biochemical kinase inhibition): 0.025 µM

COC(=O)c1c[nH]c2nccc(-c3ccc(CN)cc3)c12 [Compound 223, methyl 4-(4-(aminomethyl)phenyl)-1H-pyrrolo[2,3-b]pyridine-3-carboxylate]
IC50 [1, 3]: 0.013 µM | IC50 [2, 3]: 0.0274 µM

Cc1cc(-c2ccnc3[nH]cc(F)c23)cc(F)c1[C@@]1(O)[C@H](C)CN(C(=O)[C@H](N)CO)C[C@@H]1C [Compound 312, (R)-2-amino-1-((3S,4R,5R)-4-(2-fluoro-4-(3-fluoro-1H-pyrrolo[2,3-b]pyridin-4-yl)-6-methylphenyl)-4-hydroxy-3,5-dimethylpiperidin-1-yl)-3-hydroxypropan-1-one]
IC50 [1, 3]: 0.153 µM | IC50 [2, 3]: 0.0081 µM

Clc1c[nH]c2nccc(-c3ccc(C4CCNCC4)cc3)c12 [Compound 173, 3-chloro-4-(4-(piperidin-4-yl)phenyl)-1H-pyrrolo[2,3-b]pyridine]
IC50 [1, 3]: 0.33 µM | IC50 [2, 3]: 0.0072 µM

CC(C)(N)c1ccc(-c2ccnc3[nH]cc(F)c23)cc1 [Compound 238, 2-(4-(3-fluoro-1H-pyrrolo[2,3-b]pyridin-4-yl)phenyl)propan-2-amine]
IC50 [1, 3]: 0.229 µM | IC50 [2, 3]: 0.0011 µM

Cc1cccc(-c2c[nH]c3nccc(-c4ccc(CN)cc4)c23)c1 [Compound 230, (4-(3-(m-tolyl)-1H-pyrrolo[2,3-b]pyridin-4-yl)phenyl) methanamine]
IC50 [1, 3]: 1.2 µM | IC50 [2, 3]: 0.017 µM

COC(=O)c1c[nH]c2nccc(-c3cc(C)c([C@@]4(O)[C@H](C)CN(C5CCS(=O)(=O)CC5)C[C@@H]4C)c(F)c3)c12 [Compound 309, methyl 4-(4-((3S,4s,5R)-1-(1,1-dioxidotetrahydro-2H-thiopyran-4-yl)-4-hydroxy-3,5-dimethylpiperidin-4-yl)-3-fluoro-5-methylphenyl)-1H-pyrrolo[2,3-b]pyridine-3-carboxylate]
IC50 [1, 3]: 2.27 µM | IC50 [2, 3]: 0.0031 µM

Cc1cc(-c2ccnc3[nH]cc(F)c23)ccc1[C@@]1(O)[C@H](C)CN(C(C)C)C[C@@H]1C [Compound 29, (3S,4s, 5R)-4-(4-(3-fluoro-1H-pyrrolo[2,3-b]pyridin-4-yl)-2-methylphenyl)-1-isopropyl-3,5-dimethylpiperidin-4-ol]
IC50 [1, 3]: 0.0435 µM | IC50 [2, 3]: 0.0013 µM

C[C@@H]1CNC[C@H](C)[C@@]1(O)c1c(F)cc(-c2ccnc3[nH]cc(F)c23)cc1F [Compound 13]
IC50 [1, 3]: 0.362 µM | IC50 [2, 3]: 0.0085 µM

Cc1cc(-c2ccnc3[nH]cc(C#N)c23)cc(F)c1[C@@]1(O)[C@H](C)CNC[C@@H]1C [Compound 2024, 4-(3-fluoro-4-((3S,4s,5R)-4-hydroxy-3,5-dimethylpiperidin-4-yl)-5-methylphenyl)-1H-pyrrolo[2,3-b]pyridine-3-carbonitrile]
IC50 ([1]; biochemical kinase inhibition): 0.334 µM | IC50 ([2]; biochemical kinase inhibition): 0.0066 µM

CNCC(=O)N1C[C@@H](C)[C@](O)(c2c(C)cc(-c3ccnc4[nH]cc(C#N)c34)cc2F)[C@@H](C)C1 [Compound 2012, 4-(3-fluoro-4-((3S,4s,5R)-4-hydroxy-3,5-dimethyl-1-(methylglycyl)piperidin-4-yl)-5-methylphenyl)-1H-pyrrolo[2,3-b]pyridine-3-carbonitrile]
IC50 ([1]; biochemical kinase inhibition): 0.349 µM | IC50 ([2]; biochemical kinase inhibition): 0.005 µM

NCC(O)(c1ccc(Cl)cc1)c1ccc(-c2ccnc3[nH]cc(-c4ccccc4)c23)cc1 (stereo not shown) [Compound 1006, 2-amino-1-(4-chlorophenyl)-1-(4-(3-phenyl-1H-pyrrolo[2,3-b]pyridin-4-yl)phenyl)ethan-1-ol]
IC50 [1, 4]: 0.23 µM | IC50 [2, 4]: 0.023 µM

O=C([C@H]1CCCN1)N1CCC(O)(c2ccc(-c3ccnc4[nH]cc(F)c34)cc2)CC1 [Compound 142]
IC50 [1, 3]: 1.35 µM | IC50 [2, 3]: 0.0078 µM

c1cc(-c2ccc3c(c2)CCNC3)c2cc[nH]c2n1 [Compound 267, 6-(1H-pyrrolo[2,3-b]pyridin-4-yl)-1,2,3,4-tetrahydroiso-quinoline]
IC50 [1, 3]: 0.308 µM | IC50 [2, 3]: 0.011 µM

C[C@@H]1CNC[C@H](C)[C@@]1(O)c1ccc(-c2ccnc3[nH]cc(F)c23)cc1 [Compound 2, (3R,4s,5S)-4-(4-(3-fluoro-1H-pyrrolo[2,3-b]pyridin-4-yl)phenyl)-3,5-dimethylpiperidin-4-ol]
IC50 [1, 3]: 0.147 µM | IC50 [2, 3]: 0.016 µM
